Data as given in EP4635958A1, “PYRIMIDINE-CONTAINING POLYCYCLIC DERIVATIVE INHIBITOR, AND PREPARATION METHOD THEREFOR AND USE THEREOF” (Shanghai Hansoh Biomedical Co., Ltd., priority 2022, dated 2024).
Where two headings read alike, the source gives them in different places.

Key:
[1] = Plasma stability test, rat plasma; details: for half-life: rat, plasma
Description: (§1) The purpose of this experiment was to detect the stability of the example compounds in plasma of mouse, rat, dog and human.
(§2) Liquid chromatography-mass spectrometer, centrifuge, vortexer, pipette, continuous dispenser, 96-well plate, 50% methanol aqueous solution, acetonitrile solution containing internal standard, blank matrix (plasma of rat, dog, or human), Propantheline (propantheline bromide), Mevinolin (lovastatin), and test compound.
(§3) After whole blood was collected from animals or humans, it was placed in a test tube containing an anticoagulant and centrifuged at 3500 rpm for 10 min to collect the upper pale yellow plasma.
(§4) The compound was weighed and the stock solution was formulated with DMSO and the working solution was formulated with 100 mM phosphate buffer.
(§5) 2.36 mg of propantheline bromide was weighed and diluted with 1 mL of DMSO into a 10 mM stock solution; 10 µL of 10 mM stock solution was pipetted into 1 mL of 100 mM phosphate buffer to achieve a final concentration of 100 µM.
(§6) 4.05 mg of lovastatin was weighed and diluted with 1 mL of DMSO into a 10 mM stock solution; 10 µL of 10 mM stock solution was pipetted into 1 mL of 100 mM phosphate buffer to achieve a final concentration of 100 µM.
(§7) • 1) In a 96-well plate, 285 µL of plasma and 15 µL of 10 µM compound (test compound) were added in sequence and incubated at 37°C. • 2) 40 µL was taken at 0, 15, 30, 60, 90, and 120 min (the sampling point can be fine-tuned) and 160 µL of acetonitrile stop solution containing internal standard was add. • 3) After centrifugation (3500 rpm, 10 min), 50 µL of supernatant was taken, and 50 µL of DDH2O added for dilution and then the obtained mixture was injected into LC-MS/MS.
(§8) • Instruments: Shimadzu LC-20 AD • Chromatographic column: Phenomenex Gemiu ® C18 (50*4.6 mm, 5 µm particle size); • mobile phase: A: Acetonitrile, B: 0.1% formic acid solution 0-8 min: 5% A→95% A, 2.0-2.1 min: 90%A→5% A; Flow rate: 0.8 mL/min; Run time: 5.0 min; Injection volume: 5 µL.
(§9) • Instrument: API4000 liquid chromatography-mass spectrometer, AB Company, USA; • the ion source was electrospray ionization source (ESI); • drying gas (N2) temperature was 500°C; • electrospray voltage was 5500V; • the detection method was positive ion detection; • the scanning method was selected reaction monitoring (MRM); • the scanning time was 0.1s.

[2] = test system: human colorectal cancer cell line (GP2D); test: Anti-tumor efficacy in mouse transplanted tumor model of human colorectal cancer cell line (GP2D); format: in vivo, mice (BALB/c nude); details: PO*BID
Description: 8-10 week old female conventional immunodeficient mice (BALB/c nude) with a body weight of 18 g-22 g were used as experimental animals, and a transplanted tumor model of human colorectal cancer cell line (GP2D) was used to conduct in vivo efficacy experiments to test the anti-tumor results of the example compounds after gavage administration.
The example compounds of the present invention, made in house.
A certain amount of the example compound was weighed, and an appropriate amount of 10% vehicle (Solutol HS15) was added. The mixture was stirred on a magnetic stirrer for 0.5 h to formulate a homogeneous suspension at the desired concentration.
The human colorectal cancer cell line (GP2D) was derived from COBIOER BIOSCIENCES CO., LTD, cultured on DMEM medium (Gibco, 11995-065) supplemented with 10% fetal calf serum (Gibco, 10091-148) and 1% penicillin/streptomycin (Gibco, 15140-122) and observed under a microscope (Thermo Fisher, 311). The cells were routinely passaged when the cells reached 80%-90% confluence in the culture flask. The passaged cells were cultured in a 37°C, 5% CO2 incubator (Thermo Fisher, 311).
Under aseptic conditions, human colorectal cancer cells (GP2D) in the logarithmic growth phase were harvested using 0.25% trypsin-EDTA (Gibco, 25200-056), washed and resuspended with phosphate buffer. The cell suspension was mixed with Matrigel (Corning, 356234) at a 1 : 1 ratio (v/v) and implanted subcutaneously into the right anterior dorsal region of immunodeficient mice (BALB/c nude). Each mouse was inoculated with 5*10^6 cells in a volume of 100 microliters (µL). After inoculation, when the tumor volume reached 100-200 mm^3, the mice would be evenly randomized into 5 groups based on the tumor size, with 5 mice per group, for in vivo efficacy experiments. The positive control group was the compound MRTX-1133, and the negative control group was the vehicle group.
Mode of administration: The positive control group was intraperitoneally injected, and the example compounds were administered orally.
Twice a week, the long and short diameters of the tumor were measured using a vernier caliper, and the tumor volume (mm^3) was calculated using the formula: V = 0.5*D*d*d, where D and d are the long and short diameters of the tumor, respectively. The anti-tumor efficacy was determined by dividing the average increase in tumor volume of compound-treated animals by the average increase in tumor volume of untreated animals. The calculation formula for tumor inhibition rate was: When there is no tumor regression, TGI(%) = 100-[(Vt-V0) administration group/(Vt-V0) vehicle control group]*100%. When tumor regression occurs, TGI(%) = [1-(V1-V0) administration group/V0 vehicle control group]* 100%. All animals were euthanized after the experiment.

[3] = test system: human colorectal cancer cell line (GP2D); test: as above; format: in vivo, mice (BALB/c nude); details: 30mpk, PO*BID, Day 14
[4] = Pharmacokinetic determination in mice (IV and PO, plasma, LCMS/MS); format: in vivo, Balb/c mice; details: mouse, in vivo, po, 30 mg/kg
How it was run: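 Male Balb/c mice, fasted overnight (n=3 per route): PO 30 mg/kg in 10% Captisol/50 mM citrate pH 5.0, or IV 1 mg/kg in 5% DMSO/10% Solutol HS15/85% PBS. Orbital blood sampled predose to 24 h; EDTA plasma analysed by LC-MS/MS.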

[5] = rat, plasma
Description: as §1, §2, §3, §4, §5, §6, §7, §8, §9

[6] = Plasma stability test, mouse plasma; format: in vitro ADME; details: for half-life: read-out: t1/2 (converted);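 on all read-outs here: test compound quantified by LC-MS using positive-mode electrospray ionization and MRM scanning, with an internal standard added in acetonitrile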
Description: as §2, §3, §4, §9

SMILES: [2H]C([2H])([2H])[C@@H]1Oc2nc(-c3cc(O)cc4ccc(F)c(C#C)c34)c(F)c3nc(OCC4(CN5CCC(=C(F)F)CC5)CC4)nc(c23)N2C[C@H]3CC[C@H](N3)[C@@H]12 [Example 161, 4-((5S,5aS,6S,9R)-12-((1-((4-(difluoromethylene)piperidin-1-yl)methyl)cyclopropyl)methoxy)-1-fluoro-5-(methyl-d3)-5a,6,7,8,9,10-hexahydro-5H-4-oxa-3,10a,11,13,14-pentaaza-6,9-methylnaphtho[1,8-ab]hept-2-yl)-5-ethynyl-6-fluoronaphthalen-2-ol]
- half-life [1]: 29.4 h
- Tumor volume (mm^3, Mean ± SD) Day 0 ([2]; 30mpk): 167 mm^3
- TGI(%) Day 14 ([2]; 30mpk): 134.18%
- ΔT/ΔC(%) Day 14 ([2]; 30mpk): 13.93%
- Tumor volume (mm^3, Mean ± SD) Day 0 ([2]; 100mpk): 167 mm^3
- TGI(%) Day 14 ([2]; 100mpk): 153.75%
- Tumor volume (mm^3, Mean ± SD) Day 14 ([2]; 100mpk): 77 mm^3
- ΔT/ΔC(%) Day 14 ([2]; 100mpk): 9.79%
- Tumor volume (mm^3, Mean ± SD) Day 14 [3]: 110 mm^3
- AUC(0-inf) [4]: 1.55 µg·h/mL
- Cmax [4]: 0.221 µg/mL
- Tmax [4]: 2 h
- Remaining rate (%) 0 min ([5]; 0 h): 100.00%
- Remaining rate (%) 15 min ([5]; 0.25 h): 94.50%
- Remaining rate (%) 30 min ([5]; 0.5 h): 98.84%
- Remaining rate (%) 60 min ([5]; 1 h): 98.63%
- Remaining rate (%) 120 min ([5]; 2 h): 95.03%
- half-life ([6]; Mouse plasma, 37°C): 229 h
- Remaining rate (%) 0 min ([6]; mouse, plasma, 0 h): 100.00%
- Remaining rate (%) 15 min ([6]; mouse, plasma, 0.25 h): 101.36%
- Remaining rate (%) 30 min ([6]; mouse, plasma, 0.5 h): 101.38%
- Remaining rate (%) 60 min ([6]; mouse, plasma, 1 h): 98.35%
- Remaining rate (%) 120 min ([6]; mouse, plasma, 2 h): 101.35%

SMILES: C#Cc1c(F)ccc2cc(O)cc(-c3nc4c5c(nc(OCC6(CN7CCC(=CF)CC7)CC6)nc5c3F)N3C[C@H]5CC[C@H](N5)[C@H]3[C@H](C)O4)c12 [Example 129, 5-ethynyl-6-fluoro-4-((5S,5aS,6S,9R)-1-fluoro-12-((1-((4-(fluoromethylene)piperidin-1-yl)methyl)cyclopropyl)methoxy)-5-methyl-5a,6,7,8,9,10-hexahydro-5H-4-oxa-3,10a,11,13,14-pentaaza-6,9-methylnaphtho[1,8-ab]hept-2-yl)naphthalen-2-ol]
- Remaining rate (%) 0 min ([1]; Rat plasma, 37°C, 0 min): 100.00%
- Remaining rate (%) 15 min ([1]; Rat plasma, 37°C, 15 min): 110.22%
- Remaining rate (%) 30 min ([1]; Rat plasma, 37°C, 30 min): 98.09%
- Remaining rate (%) 60 min ([1]; Rat plasma, 37°C, 60 min): 106.43%
- Remaining rate (%) 120 min ([1]; Rat plasma, 37°C, 120 min): 95.62%
- half-life [1]: 41.2 h
- Tumor volume (mm^3, Mean ± SD) Day 0 ([2]; 30mpk): 167 mm^3
- TGI(%) Day 14 ([2]; 30mpk): 133.12%
- ΔT/ΔC(%) Day 14 ([2]; 30mpk): 14.15%
- Tumor volume (mm^3, Mean ± SD) Day 0 ([2]; 100mpk): 167 mm^3
- TGI(%) Day 14 ([2]; 100mpk): 153.01%
- Tumor volume (mm^3, Mean ± SD) Day 14 ([2]; 100mpk): 79 mm^3
- ΔT/ΔC(%) Day 14 ([2]; 100mpk): 9.94%
- Tumor volume (mm^3, Mean ± SD) Day 14 [3]: 112 mm^3
- Remaining rate (%) 0 min ([6]; Mouse plasma, 37°C, 0 min): 100.00%
- Remaining rate (%) 15 min ([6]; Mouse plasma, 37°C, 15 min): 97.30%
- Remaining rate (%) 30 min ([6]; Mouse plasma, 37°C, 30 min): 103.47%
- Remaining rate (%) 60 min ([6]; Mouse plasma, 37°C, 60 min): 104.94%
- Remaining rate (%) 120 min ([6]; Mouse plasma, 37°C, 120 min): 91.62%
- half-life ([6]; Mouse plasma, 37°C): 37.6 h
